Measurements: PMC4984914 (British Journal of Cancer, 2016)

Key:
Format in all cases: in vivo
[1] = Preclinical plasma level of cleavage product 12ADT-Asp after dosing; conditions: mice; any time after dosing of mipsagargin
[2] = as above; conditions: monkeys; any time after dosing of mipsagargin
[3] = as above; conditions: rats; any time after dosing of mipsagargin

Measured: Level of cleavage product 12ADT-Asp in plasma

C/C=C(/C)C(=O)O[C@H]1C(C)=C2[C@H]([C@@H]1OC(=O)CCCCCCC)[C@@](C)(OC(C)=O)C[C@H](OC(=O)CCCCCCCCCCCNC(=O)C[C@H](N)C(=O)O)[C@@]1(O)[C@H]2OC(=O)[C@@]1(C)O [12ADT-Asp]
virtually undetectable: all assays above
